Source: PubChem BioAssay (NCI)
Several values for one entry are separate records, joined by “and”; a condition that tells them apart may be missing. Equal entries are not always repeated.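 Dose response: 5 concentrations. Exposure: 48 h. Format: 96-well plates. Endpoint: linear interpolation; highest concentration if not reached. Here, GI50 denotes the concentration required for 50% inhibition of growth. TGI is the concentration that stops growth completely.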

Test system: RXF 393 renal
Assay: DTP human tumour cell line panel, 48 h

First: CCN1CCN(C(c2ccc(C(F)(F)F)cc2)c2ccc3cccnc3c2O)CC1 (centres undefined)
Second: COc1ccc(CN2C(=O)/C(=C\C(=O)c3ccc(OCCN4CCCCC4)cc3)c3ccccc32)cc1
The GI50 of the first is 1.9-fold higher: 3.2 µM for the first, 1.69 µM for the second.

Compared with `CC(C)=CC/C=C(/C)[C@H]1CC[C@]2(C)[C@@H]1CC[C@@H]1[C@@]3(C)CCCNC(C)(C)[C@@H]3CC[C@]12C`, `CC(C)=CCNc1ncnc2c1ncn2C1OC(CO)C(O)C1O` (centres undefined) is 3.5-fold lower in GI50: 1.72 µM for the first, 0.488 µM for the second.

First: N#CC(=C1C=CC(=NO)C=C1)c1ccccc1
Second: O=C(CNc1ccc(Cl)cc1)Nc1ccc(-c2nc3ccccc3s2)cc1
The GI50 of the first is 4.3-fold lower: 1.14 µM for the first, 4.95 µM for the second.

`CCCCCCCCCCCCCC1=NC(C)(C)CN1C(C)C` and `CCCCCCCCCCCCOC1C(C(COC2OC(C3COC(C)(C)O3)C3OC(C)(C)OC23)NC(=O)Nc2ccc(C(=O)O)cc2)OC2OC(C)(C)OC21` (centres undefined) are within 1.5-fold of each other in GI50: 1.62 µM for the first, 2.26 µM for the second.

`CCC(C)n1ncn(-c2ccc(N3CCN(c4ccc(OCC5COC(Cn6cncn6)(c6ccc(Cl)cc6Cl)O5)cc4)CC3)cc2)c1=O` (centres undefined) showed a GI50 of 0.267 µM.

First: CCN1CCN(C(c2ccc(C(F)(F)F)cc2)c2ccc3cccnc3c2O)CC1 (centres undefined)
Second: COc1ccc(CN2C(=O)/C(=C\C(=O)c3ccc(OCCN4CCCCC4)cc3)c3ccccc32)cc1
The TGI of the first is 5-fold higher: 16 µM for the first, 3.22 µM for the second.

`CC(C)=CC/C=C(/C)[C@H]1CC[C@]2(C)[C@@H]1CC[C@@H]1[C@@]3(C)CCCNC(C)(C)[C@@H]3CC[C@]12C` and `CC(C)=CCNc1ncnc2c1ncn2C1OC(CO)C(O)C1O` (centres undefined) are within 1.5-fold of each other in TGI: 3.31 µM for the first, 2.6 µM for the second.

Going from `N#CC(=C1C=CC(=NO)C=C1)c1ccccc1` to `NC(=O)NC1C(c2ccccc2)=C1c1ccccc1`, the TGI rises from 8.63 µM to 14.8 µM (1.7-fold).

`CCCCCCCCCCCCCC1=NC(C)(C)CN1C(C)C` and `CCCCCCCCCCCCOC1C(C(COC2OC(C3COC(C)(C)O3)C3OC(C)(C)OC23)NC(=O)Nc2ccc(C(=O)O)cc2)OC2OC(C)(C)OC21` (centres undefined) are within 1.5-fold of each other in TGI: 3.11 µM for the first, 4.05 µM for the second.

First: CCC(C)n1ncn(-c2ccc(N3CCN(c4ccc(OCC5COC(Cn6cncn6)(c6ccc(Cl)cc6Cl)O5)cc4)CC3)cc2)c1=O (centres undefined)
Second: O=C(CNc1ccc(Cl)cc1)Nc1ccc(-c2nc3ccccc3s2)cc1
The TGI of the first is 12-fold lower: 0.865 µM for the first, 10.3 µM for the second.

`C=C1C(=O)OC2CCN3CC=C(COC(=O)C(C)(O)C4(CO4)C1C)C23` (centres undefined) and `CS(=O)(=O)Nc1ccc2c(c1)oc(=O)c1ccccc12` cannot be ordered by TGI: greater than 100 µM for the first, greater than 100 µM for the second.

With `O=C1c2cccc(NCCCNCCO)c2C(=O)c2cccc(NCCCNCCO)c21` the TGI was 5.54 µM and 5.82 µM.
For `CCN(CC)CCC(CNc1ccnc2cc(Cl)ccc12)c1ccc(OC)cc1` (centres undefined), the TGI was 15.6 µM and 5.16 µM.

`CCN(CC)CCC(CNc1ccnc2cc(Cl)ccc12)c1ccc(OC)cc1` (centres undefined) was tested, and the GI50 was 3.5 µM and 2.26 µM.

Test system: PC-3 prostate
Assay: DTP human tumour cell line panel, 48 h

First: C=COCCCOc1ccccc1
Second: CCOC(=O)CCCn1c(SC)nc2[nH]cc(-c3ccccc3)c2c1=O
The GI50 of the first is higher: greater than 100 µM for the first, 13.8 µM for the second.

`COc1cc2nc(-c3ccc(Cl)cc3)cc(OCCCN3CCCCC3)c2cc1OC` and `CCN(CC)CCOc1ccc(-c2nc3cc(Cl)ccc3s2)cc1` are the same in GI50: 1.74 µM for the first, 1.74 µM for the second.

Compared with `O=c1c2sc(=S)n(-c3ccc(F)cc3)c2ncn1Cc1ccc(F)cc1F`, `CCN1CCN(C(c2ccc(C(F)(F)F)cc2)c2ccc3cccnc3c2O)CC1` (centres undefined) is 220-fold lower in GI50: 80.8 µM for the first, 0.361 µM for the second.

Going from `O=C1NC(=O)C(c2cnc3ccccn23)=C1c1cn2c3c(cc(F)cc13)CN(C(=O)N1CCCCC1)CC2` to `O=C(OC(CNc1cc(=O)n(Cc2ccccc2)c(=O)n1Cc1ccccc1)CN1CCCC1)c1ccccc1` (centres undefined), the GI50 rises from 4.17 µM to greater than 100 µM.

First: Clc1nc2ccccc2nc1CI
Second: N#CC(=C1C=CC(=NO)C=C1)c1ccccc1
The GI50 of the first is 13-fold higher: 8.81 µM for the first, 0.671 µM for the second.

`Cn1nc(N)c2cc([C@@H]3Nc4ccc5[nH]ncc5c4[C@H]4C5CCC(C5)[C@@H]34)ccc21` (some centres undefined) and `CC(C)=CCNc1ncnc2c1ncn2C1OC(CO)C(O)C1O` (centres undefined) are within 1.5-fold of each other in GI50: 0.418 µM for the first, 0.616 µM for the second.

`CC(C)=CC/C=C(/C)[C@H]1CC[C@]2(C)[C@@H]1CC[C@@H]1[C@@]3(C)CCCNC(C)(C)[C@@H]3CC[C@]12C` and `CCCCCCCCCCCCCC1=NC(C)(C)CN1C(C)C` are within 1.5-fold of each other in GI50: 1.62 µM for the first, 1.34 µM for the second.

Compared with `C=COCCCOc1ccccc1`, `CCOC(=O)CCCn1c(SC)nc2[nH]cc(-c3ccccc3)c2c1=O` is lower in TGI: greater than 100 µM for the first, 35.8 µM for the second.

First: COc1cc2nc(-c3ccc(Cl)cc3)cc(OCCCN3CCCCC3)c2cc1OC
Second: CCN(CC)CCOc1ccc(-c2nc3cc(Cl)ccc3s2)cc1
The TGI of the first is higher: greater than 100 µM for the first, 4.61 µM for the second.

`C=C(c1nc2ccc(Cl)cc2[nH]c1=O)C(O)c1ccc(C(O)C(=O)c2nc3ccc(Cl)cc3[nH]c2=O)cc1` (centres undefined) and `O=c1c2sc(=S)n(-c3ccc(F)cc3)c2ncn1Cc1ccc(F)cc1F` cannot be ordered by TGI: greater than 100 µM for the first, greater than 100 µM for the second.

First: COc1cc(C#CC(=O)OC/C=C/c2ccc3c(c2)OCO3)cc(OC)c1OC
Second: Cn1nc(N)c2cc([C@@H]3Nc4ccc5[nH]ncc5c4[C@H]4C5CCC(C5)[C@@H]34)ccc21 (some centres undefined)
The TGI of the first is 3.7-fold higher: 72.3 µM for the first, 19.8 µM for the second.

Compared with `O=C1NC(=O)C(c2cnc3ccccn23)=C1c1cn2c3c(cc(F)cc13)CN(C(=O)N1CCCCC1)CC2`, `O=C(OC(CNc1cc(=O)n(Cc2ccccc2)c(=O)n1Cc1ccccc1)CN1CCCC1)c1ccccc1` (centres undefined) is higher in TGI: 41.8 µM for the first, greater than 100 µM for the second.

`Clc1nc2ccccc2nc1CI` and `N#CC(=C1C=CC(=NO)C=C1)c1ccccc1` are within 1.5-fold of each other in TGI: 22.5 µM for the first, 17 µM for the second.

Compared with `O=C(O)C1C2C=CC(O2)C1C(=O)NCc1ccccn1` (centres undefined), `CC(C)=CCNc1ncnc2c1ncn2C1OC(CO)C(O)C1O` (centres undefined) is lower in TGI: greater than 100 µM for the first, 31 µM for the second.

Going from `CNC(=O)N(C)N=NCCCl` to `O=C1c2cccc(NCCCNCCO)c2C(=O)c2cccc(NCCCNCCO)c21`, the TGI falls from greater than 100 µM to 5.84 µM.

Compared with `CCN1CCN(C(c2ccc(C(F)(F)F)cc2)c2ccc3cccnc3c2O)CC1` (centres undefined), `CCCCCCCCCCCCCC1=NC(C)(C)CN1C(C)C` is 5.8-fold lower in TGI: 17.6 µM for the first, 3.03 µM for the second.

Work on `CC(C)=CC/C=C(/C)[C@H]1CC[C@]2(C)[C@@H]1CC[C@@H]1[C@@]3(C)CCCNC(C)(C)[C@@H]3CC[C@]12C` yielded a TGI of 3.59 µM.

With `CCN(CC)CCCC(CNc1ccnc2cc(Cl)ccc12)c1ccc(Cl)cc1` (centres undefined) the GI50 was 3.51 µM and 2.45 µM.

`CCN(CC)CCCC(CNc1ccnc2cc(Cl)ccc12)c1ccc(Cl)cc1` (centres undefined) was tested, and the TGI was 13.2 µM and 10.2 µM.
